Where “and” joins values, the source holds several entries; their conditions need not be identical. Equal entries are not always repeated. Inconclusive results and toxic doses are left out. How the source made its calls: active means survival T/C of 150% or more; inactive means T/C below 125% in these data.
System: P388 leukemia ip, CD2F1 mice, survival T/C
Experiment: NCI In Vivo Anticancer Drug Screen. Data for tumor model P388 Leukemia (intraperitoneal) in CD2F1 (CDF1) mice
Conditions: endpoint: median survival time, higher = longer survival
Method in brief: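 Mice carrying the transplanted tumor received test compound or vehicle. Survival was recorded in each group, and the value is the treated-group measurement divided by that of the vehicle-treated control group.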

[1] = dose: 50.0 mg/kg/injection, schedule: Q01DX009 (ip), vehicle: saline with Tween-80
[2] = dose: 100.0 mg/kg/injection, schedule: Q01DX009 (ip), vehicle: saline with Tween-80
[3] = dose: 200.0 mg/kg/injection, schedule: Q01DX009 (ip), vehicle: saline with Tween-80
[4] = dose: 60.0 mg/kg/injection, schedule: Q01DX005 (ip), vehicle: saline with Tween-80
[5] = dose: 120.0 mg/kg/injection, schedule: Q01DX005 (ip), vehicle: saline with Tween-80
[6] = dose: 240.0 mg/kg/injection, schedule: Q01DX005 (ip), vehicle: saline with Tween-80
[7] = dose: 50.0 mg/kg/injection, schedule: Q01DX009 (ip), vehicle: Klucel (hydroxypropylcellulose) (HPC)
[8] = dose: 100.0 mg/kg/injection, schedule: Q01DX009 (ip), vehicle: Klucel (hydroxypropylcellulose) (HPC)
[9] = dose: 200.0 mg/kg/injection, schedule: Q01DX009 (ip), vehicle: Klucel (hydroxypropylcellulose) (HPC)

Measured: T/C

CCSC(CC(C)=O)c1ccccc1 (centres undefined)
inactive: [1] 108 % of control | [2] 116 % of control | [3] 105 % of control

COc1cc2oc(=O)cc(C)c2cc1[N+](=O)[O-]
inactive: dose: 50.0 mg/kg/injection, schedule: Q01DX009 (ip), vehicle: suspension in saline 98 % of control | dose: 100.0 mg/kg/injection, schedule: Q01DX009 (ip), vehicle: suspension in saline 95 % of control | dose: 200.0 mg/kg/injection, schedule: Q01DX009 (ip), vehicle: suspension in saline 96 % of control

CC(Cl)(c1ccccc1)C1OCCO1 (centres undefined)
inactive: [4] 100 % of control | [5] 101 % of control | [6] 102 % of control

Nc1nc(-c2ccc(F)cc2)cc(-c2cc(-c3ccc(F)cc3)nc(N)n2)n1
inactive: dose: 60.0 mg/kg/injection, schedule: Q01DX005 (ip), vehicle: saline 100 % of control | dose: 120.0 mg/kg/injection, schedule: Q01DX005 (ip), vehicle: saline 105 % of control | dose: 240.0 mg/kg/injection, schedule: Q01DX005 (ip), vehicle: saline 102 % of control

COc1cc(C2C(C)=C(C)Oc3cc4c(cc32)OCO4)cc(OC)c1OC (centres undefined)
inactive: [4] 97 % of control | [5] 91 % of control | [6] 88 % of control

N#Cc1c(-c2ccccc2)c(-c2ccccc2)nn(CCO)c1=O
inactive: dose: 25.0 mg/kg/injection, schedule: Q04DX002 (ip), vehicle: distilled water + Tween-80 94 % of control | dose: 50.0 mg/kg/injection, schedule: Q04DX002 (ip), vehicle: distilled water + Tween-80 103 % of control | dose: 100.0 mg/kg/injection, schedule: Q04DX002 (ip), vehicle: distilled water + Tween-80 108 % of control | dose: 200.0 mg/kg/injection, schedule: Q04DX002 (ip), vehicle: distilled water + Tween-80 110 % of control

CCCCCCCCCCCCn1ccnc1
inactive: dose: 100.0 mg/kg/injection, schedule: Q04DX003 (ip), vehicle: saline with Tween-80 102 % of control | dose: 200.0 mg/kg/injection, schedule: Q04DX003 (ip), vehicle: saline with Tween-80 97 % of control

CCCC1OCC(O)C(C(O)C(=O)CN(C)c2ccccc2)O1 (centres undefined)
inactive: dose: 50.0 mg/kg/injection, schedule: Q01DX005 (ip), vehicle: saline with Tween-80 98 % of control | dose: 100.0 mg/kg/injection, schedule: Q01DX005 (ip), vehicle: saline with Tween-80 100 % of control | dose: 200.0 mg/kg/injection, schedule: Q01DX005 (ip), vehicle: saline with Tween-80 98 % of control

CN=C(NC)c1ccc(NC(=O)c2cc(OC)cc(C(=O)Nc3ccc(C(=NC)NC)cc3)c2)cc1
inactive: dose: 6.25 mg/kg/injection, schedule: Q01DX005 (ip), vehicle: Klucel (hydroxypropylcellulose) (HPC) 100 % of control | dose: 12.5 mg/kg/injection, schedule: Q01DX005 (ip), vehicle: Klucel (hydroxypropylcellulose) (HPC) 110 % of control | dose: 25.0 mg/kg/injection, schedule: Q01DX005 (ip), vehicle: Klucel (hydroxypropylcellulose) (HPC) 110 % of control

S=C(C(=S)N1CCOCC1)N1CCOCC1
inactive: dose: 25.0 mg/kg/injection, schedule: Q01DX009 (ip), vehicle: Klucel (hydroxypropylcellulose) (HPC) 110 % of control | dose: 50.0 mg/kg/injection, schedule: Q01DX001 (ip), vehicle: saline 100 % of control | [7] 99 % of control and 101 % of control and 112 % of control | dose: 100.0 mg/kg/injection, schedule: Q01DX001 (ip), vehicle: saline 107 % of control | [8] 101 % of control and 114 % of control | dose: 200.0 mg/kg/injection, schedule: Q01DX001 (ip), vehicle: saline 112 % of control | [9] 103 % of control and 110 % of control and 123 % of control

COc1ccc2c(c1)CCC1=C2P(C)(=S)CC1 (centres undefined)
inactive: [7] 101 % of control | [8] 104 % of control | [9] 106 % of control

CC(N)C(=O)NC(C(=O)O)C(C)C (centres undefined)
inactive: dose: 25.0 mg/kg/injection, schedule: Q01DX009 (ip), vehicle: saline with Tween-80 102 % of control | dose: 50.0 mg/kg/injection, schedule: Q01DX005 (ip), vehicle: saline 93 % of control | [1] 100 % of control | dose: 100.0 mg/kg/injection, schedule: Q01DX005 (ip), vehicle: saline 100 % of control | [2] 96 % of control | dose: 200.0 mg/kg/injection, schedule: Q01DX005 (ip), vehicle: saline 98 % of control | [3] 111 % of control
